The values that follow come from publication PMC10725351, “Niosomal formulation of mefenamic acid for enhanced cancer targeting; preparation, characterization and biodistribution study using radiolabeling technique” (Journal of Cancer Research and Clinical Oncology, 2023).

This data set in a line: In vitro drug release study (dialysis bag, PBS pH 7.4, 37 °C) with kinetic model fitting. The format is physicochemical. On the procedure: In comparison to the release of MEF from suspension, the MEF release from the optimal niosomal formulation was assessed. The dialysis method is the technique of choice for assessing the criteria of drug release from the niosomal formula. MEF release from niosomal formulation and suspension was monitored using a dialysis bag (MWCO12000 Da) at 37 °C for 24 h versus PBS (pH 7.4) to simulate the biological conditions. The optimal niosomes formula and suspension (1 ml of each) were loaded separately inside the dialysis tube, and the released quantity of MEF was evaluated in 100 ml of PBS with continuous stirring. At predefined intervals, (1, 2, 3, 4, 5, 6, 8, and 24 h), 2 ml of freshly formed PBS was added to replace two ml that were withdrawn from the release medium to assess the drug release rate. Lastly, the released concentrations of MEF were determined by examining the samples at 285 nm wavelength using a UV–visible spectrophotometer. This study was performed in triplicate (Targhi et al. [2021]).
The mathematical methodology utilized to determine the kinetics of the total released percentages (cumulative) of MEF from the niosomes formulation was linear regression analysis. These models include Higuchi, Korsmeyer Peppas, First Order, and Zero Order. In the end, the correlation coefficient values were compared to select the model that best fit the data. […]

`Cc1cccc(Nc2ccccc2C(=O)O)c1C` [MEF suspension, mefenamic acid]: under “after 24 h, PBS pH 7.4, 37 °C, dialysis bag”, the “Cumulative MEF release” value was 55.36%. Further, the Order of permeation entry (best-fit release model) is reported as “Diffusion”.
